From patent publication US10875876B2, “Cyclized sulfamoylarylamide derivatives and the use thereof as medicaments for the treatment of hepatitis B” (priority 2015, dated 2020) come the findings set out here.

The nature of data set [1]: Cytotoxicity in HepG2 cells, Resazurin assay. The conditions noted are these: human, HepG2 cells, TOX-HepG2-4 d CC50 (μM), HepG2 cells incubated for 4 days, viability by Resazurin assay.
A further data set relates to HBV. Put plainly: anti HBV activity, HepG2.117 cell line, intracellular HBV DNA by realtime PCR. The conditions noted are these: Hepatitis B virus, HepG2.117, 72 h. It is filed as cell-based. In outline: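 Readout was intracellular HBV DNA by real-time PCR (HBV-specific primers and probe) after 3 days of compound exposure. Serial dilutions were tested in duplicate on HepG2.117 cells, a stable inducible HBV producer in which replication is switched on when doxycycline is absent.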

The mark [2] stands for this setting: HepG2.117 cell line (Tet-off), 3 days of treatment, intracellular HBV DNA quantified by realtime PCR, read-out: HBV-AVE-HepG2.117 EC50.

Each structure is given as a SMILES string. Read-outs that look alike come from different tables or passages of the source.

As for `Cn1cc2c(c1C(=O)Nc1ccc(F)c(Cl)c1)OCC(C)(Cc1ccc(Cl)nc1)NS2(=O)=O` (stereo not drawn) [Compound 198, N-(3-chloro-4-fluoro-phenyl)-3-[(6-chloro-3-pyridyl)methyl]-3,7-dimethyl-1,1-dioxo-2,4-dihydropyrrolo[3,4-b][1,4,5]oxathiazepine-6-carboxamide], the CC50 at 4 days in data set [1] was above 25 µM. Further, the EC50 in the data set with HBV (setting [2]) was determined as 0.011 µM.
With `Cc1cc(NC(=O)c2c3c(cn2C)S(=O)(=O)N[C@@H]([C@H](C)O)CO3)ccc1F` [Compound 200, (3R)—N-(4-fluoro-3-methyl-phenyl)-3-[(1S)-1-hydroxyethyl]-7-methyl-1,1-dioxo-3,4-dihydro-2H-pyrrolo[3,4-b][1,4,5]oxathiazepine-6-carboxamide], the CC50 at 4 days in data set [1] was above 25 µM. Moreover, the EC50 with HBV (setting [2]) was found to be 0.084 µM.
For the compound `Cn1cc2c(c1C(=O)Nc1ccc(F)c(F)c1)CCC(CO)(CO)NS2(=O)=O` [Compound 201, N-(3,4-difluorophenyl)-3,3-bis(hydroxymethyl)-7-methyl-1,1-dioxo-4,5-dihydro-2H-pyrrolo[3,4-f]thiazepine-6-carboxamide], the cytotoxic concentration (CC50) at 4 days in data set [1] was above 25 µM. Moreover, the EC50 in the data set on HBV (setting [2]) turned out to be 0.11 µM.
Taken in the same sequence, the figures for `COCC1(CO)CCc2c(cn(C)c2C(=O)Nc2ccc(F)c(F)c2)S(=O)(=O)N1` (stereo not drawn) [Compound 202, N-(3,4-difluorophenyl)-3-(hydroxymethyl)-3-(methoxymethyl)-7-methyl-1,1-dioxo-4,5-dihydro-2H-pyrrolo[3,4-f]thiazepine-6-carboxamide] were above 25 µM and 0.025 µM.
In the case of `CC#CCC1COc2c(cn(C)c2C(=O)Nc2ccc(F)c(F)c2)S(=O)(=O)N1` (stereo not drawn) [Compound 205, 3-but-2-ynyl-N-(3,4-difluorophenyl)-7-methyl-1,1-dioxo-3,4-dihydro-2H-pyrrolo[3,4-b][1,4,5]oxathiazepine-6-carboxamide], in data set [1], the CC50 at 4 days was above 25 µM. Also, in the data set on HBV (read-out: HBV-AVE-HepG2.117 EC50 (μM)), the EC50 turned out to be 0.05 µM.
`Cn1cc2c(c1C(=O)Nc1ccc(F)c(F)c1)OCC1(CCN(Cc3ccccc3)C1)NS2(=O)=O` (stereo not drawn) [Compound 216, 1′-benzyl-N-(3,4-difluorophenyl)-7-methyl-1,1-dioxo-spiro[2,4-dihydropyrrolo[3,4-b][1,4,5]oxathiazepine-3,3′-pyrrolidine]-6-carboxamide] displayed a CC50 at 4 days in data set [1] above 25 µM. Besides, the EC50 with HBV (setting [2]) came out at 0.034 µM.
The corresponding values for `C[C@@H]1NS(=O)(=O)c2cn(C)c(C(=O)Nc3ccc(F)c(F)c3)c2O[C@H]1C` [compound 229] are above 25 µM and above 0.5 µM.
`C[C@@H]1Oc2c(cn(C)c2C(=O)Nc2ccc(F)c(F)c2)S(=O)(=O)N[C@@H]1C` [compound 230] gave a CC50 at 4 days in data set [1] above 25 µM. Moreover, the EC50 with HBV (setting [2]) is above 0.5 µM.
Turning to `C[C@H]1NS(=O)(=O)c2cn(C)c(C(=O)Nc3ccc(F)c(F)c3)c2O[C@@H]1C` [compound 231], the CC50 at 4 days in data set [1] was above 25 µM. The EC50 in the data set on HBV (setting [2]) is above 0.5 µM.
As for `Cc1ccc(NC(=O)c2c(F)ccc3c2OC[C@H](C(C)C)NS3(=O)=O)cc1F` [compound 232], in data set [1], the CC50 at 4 days was above 25 µM. For the same compound, the EC50 in the data set on HBV (setting [2]) is above 0.5 µM.
With `C[C@@H]1Oc2c(cn(C)c2C(=O)Nc2ccnc(C(F)F)c2)S(=O)(=O)N[C@@H]1CO` [compound 233], the CC50 at 4 days in data set [1] was above 25 µM. Moreover, in the data set with HBV (setting [2]), the EC50 was above 0.5 µM.
`C[C@@H]1Oc2c(cn(C)c2C(=O)Nc2ccc(F)c(C(F)F)c2)S(=O)(=O)N[C@@H]1CO` [compound 234] came in with a CC50 at 4 days in data set [1] above 25 µM. Moreover, in the data set on HBV (setting [2]), the EC50 is above 0.5 µM.
As for `C=C1c2c(cn(C)c2C(=O)Nc2ccc(F)c(F)c2)S(=O)(=O)NC1C(C)C` (stereo not drawn) [compound 237], the CC50 at 4 days in data set [1] is above 25 µM. For the same compound, the EC50 in the data set on HBV (setting [2]) was above 0.5 µM.
For the compound `C=C1c2c(cn(C)c2C(=O)Nc2ccc(F)c(C(F)F)c2)S(=O)(=O)NC1C(C)C` (stereo not drawn) [compound 238], the CC50 at 4 days in data set [1] was above 25 µM. Also, the EC50 with HBV (setting [2]) amounted to 0.077 µM.
Turning to `CC(C)[C@H]1Oc2c(cn(C)c2C(=O)Nc2ccc(F)c(C#N)c2)S(=O)(=O)N[C@@H]1CO` [compound 239], in data set [1], the CC50 at 4 days is above 25 µM. Further, the EC50 in the data set on HBV (setting [2]) is above 0.5 µM.
